Assay results from paper PMC6511062, “Preclinical candidate for the treatment of visceral leishmaniasis that acts through proteasome inhibition” (Proceedings of the National Academy of Sciences of the …, 2019).
Entries after “also recorded” stand apart in the source; their conditions may differ.

Assays:
[1] = test system: caspase activity of the L. donovani proteasome; assay: Proteasome activity assay, caspase-like, L. donovani; type: biochemical, Leishmania donovani
Experimental: k. Proteasome activity assays
Compounds were dispensed into black 384-well assay plates (Greiner) by acoustic dispensing (LabCyte ECHO). For potency determinations, eleven-point, one in three dilution curves were generated, with a top concentration of 100 µM. Three proteasome activities were measured using a commercially available indirect enzyme-based luminescent assay kit (Promega) with Suc-LLVY-aminoluciferin, Z-LRR-aminoluciferin and Z-nLPnLD-aminoluciferin used as substrates for chymotrypsin-like, trypsin-like and caspase-like activities, respectively. In addition to proteasome samples: L. donovani and THP1-enriched proteasomes, commercially available human purified 26S proteasome (Boston Biochem) was also assessed. Proteasome final assay concentration were 0.025 mg/ml for L. donovani and THP1-enriched proteasomes and 1 nM for human purified 26S proteasome. Proteasome solution was added to the plates containing the compounds one hour before adding the proteasome substrate solution.
Substrate solution was then added and after 30 min of incubation luminescent signal was measured in an Envision reader (PerkinElmer).
Cultures of L. donovani axenic amastigotes were diluted to either 8 x 106 or 8 x 107 […]
value. […]
value) were used as negative and positive controls, respectively. […] Protein concentrations were determined by standard Bradford assays and Laemmli sample buffer was added to samples. […]

[2] = test system: L. donovani proteasome β subunits; assay: Activity-based probe (UbiQ-018) labelling of L. donovani proteasome; type: binding, Leishmania donovani; settings: 100 µM
Experimental: m. Activity-Based Probe Labelling of THP1 and L. donovani proteasome
Proteasome enriched fractions from THP1 (20 µg), L. donovani (10 µg) and L. donovani […]
µM for 1 h. Proteasome enriched fractions were also incubated with DMSO as control.
For all proteasome labelling experiments, the active-site probe Me4BodipyFL-Ahx3Leu3VS (UbiQ-018) was used at final concentration of 500 nM in sucrose buffer (50 mM Tris buffer pH 7.5, 5 mM magnesium chloride, 1 mM EDTA, 50 mM NaCl, 250 mM sucrose, 2 mM ATP, 1 mM DTT). Proteasome enriched fractions treated with […]
DMSO or test compounds, were incubated with the probe for 2h at RT. Samples were then denatured by addition of Laemmli sample buffer, heated to 95°C for 10 min and separated by electrophoresis on a 15% SDS-PAGE acrylamide gel. Following separation, gels were scanned in the fluorescein channel of a ChemiDoc reader (λ excitation/emission = 480/530 nm). Fluorescent proteins were excised and MALDI– TOF analysis carried out by the FingerPrints Proteomics service at the University of […]
10. Measuring Proteolytic activity of Leishmania tarentolae Proteasome […]
pre-prepared as a 10 mM stocks in 100 % DMSO and then diluted 1 in 3, over 11 points, prior to dispense of 100 nl of each dilution series into black, low volume, 384-well microplates. Proteasome was prepared as a 0.5 µg/mL working solution in assay buffer (50 mM HEPES (pH 7.5), 150 mM NaCl, 5 mM MgCl2, 5% glycerol, 1 mM CHAPS) and 5 µL was added using a Multidrop Micro (Thermo Fisher Scientific) to all wells containing compound dilutions on the test microplates. The microplates were then centrifuged for 1 min at 1000 rpm and incubated for 15 mins at 25 °C, prior to an assay initiating addition of 5 µl of fluorogenic substrate, which had been prepared as a 1 µM […]
The assay microplates were then centrifuged for 10 secs before using a Tecan M1000 Pro to monitor the increase of fluorescent intensity at 25 °C by excitation of the liberated Rhodamine110 at 485 nm and emission at 535 nm every 125 secs for 20 cycles. […]
calculate initial rates of reactions for all assay wells on the microplate by fitting to a linear regression model. The initial rates of reaction for all compound concentrations tested were normalised to the initial rates determined for 16 replicate control wells per microplate of both uninhibited reaction and no-proteasome background, and subsequently, IC50 values were determined by fitting the normalised data to the following four-parameter logistic model; y = a + (( b – a) / ( 1 + ( 10 ^ x / 10 ^ c ) ^ d ), where ‘a’ is the minimum, ‘b’ is […], ‘c’ is the IC50 and ‘d’ is […].
11. Cryo-EM of 20S Leishmania tarentolae proteasome a. Purification of 20S Leishmania tarentolae proteasome. […]

Compound: O=C(Nc1ccc(F)c(-c2ccn3c(N4CCOCC4)cnc3n2)c1)N1CCCC1 [Compound 8]
- effect on caspase activity [1]: no effect
- UbiQ-018 labelling of proteasome subunits ([2]; L. donovani WT extracts): selectively blocks labeling of β5; also recorded: selectively blocked UbiQ-018 labeling of the β5 subunit
- UbiQ-018 labelling of proteasome subunits ([2]; L. donovani-resistant RES II extracts): could not be abolished
